Key:
[1] = organism: Homo sapiens; assay: Selectivity ratio of IC50 for CDK1/Cyclin-A2 (unknown origin) to IC50 for CDK6/Cyclin-D3 (unknown origin)
[2] = Half life in Sprague-Dawley rat at 2 mg/kg, iv administered as single dose by LC-MS/MS analysis; format: ADME, organism-based; settings: in vivo
[3] = AUC (0 to 24 hrs) in Sprague-Dawley rat at 2 mg/kg, iv administered as single dose by LC-MS/MS analysis; format: ADME, organism-based; set-up: dose 2 mg/kg, time < 24 hr, route intravenous; settings: in vivo
[4] = Volume of distribution at steady state in Sprague-Dawley rat at 2 mg/kg, iv administered as single dose by LC-MS/MS analysis; format: ADME, organism-based; settings: in vivo, read-out: Vdss
[5] = Clearance in Sprague-Dawley rat at 2 mg/kg, iv administered as single dose by LC-MS/MS analysis; format: ADME, organism-based; settings: in vivo
[6] = biological target: Cyclin-dependent kinase 4/cyclin D1 (Homo sapiens, UniProt P11802); assay: Inhibition of CDK4/Cyclin-D1 (unknown origin) using histone-H1 as substrate after 90 mins by ADP-Glo assay; format: protein-complex assay
[7] = Cmax in Sprague-Dawley rat at 5 mg/kg, po administered as single dose by LC-MS/MS analysis; format: ADME, organism-based; set-up: dose 5 mg/kg, route oral; settings: in vivo
[8] = biological target: CDK1/Cyclin A (Homo sapiens, UniProt P06493); assay: Inhibition of CDK1/Cyclin-A2 (unknown origin) using histone-H1 as substrate after 90 mins by ADP-Glo assay; format: protein-complex assay
[9] = Oral bioavailability in Sprague-Dawley rat at 5 mg/kg administered as single dose by LC-MS/MS analysis; format: ADME, organism-based; settings: Sprague-Dawley, in vivo
[10] = AUC (0 to infinity) in Sprague-Dawley rat at 2 mg/kg, iv administered as single dose by LC-MS/MS analysis; format: ADME, organism-based; set-up: dose 2 mg/kg, route intravenous, time infinity; settings: Sprague-Dawley, in vivo
[11] = AUC (0 to 24 hrs) in Sprague-Dawley rat at 5 mg/kg, po administered as single dose by LC-MS/MS analysis; format: ADME, organism-based; set-up: time < 24 hr, dose 5 mg/kg, route oral; settings: in vivo
[12] = biological target: CDK6/cyclin D3 (Homo sapiens, UniProt Q00534); assay: Inhibition of CDK6/Cyclin-D3 (unknown origin) using histoneH1 as substrate after 90 mins by ADP-Glo assay; format: protein-complex assay
[13] = Half life in Sprague-Dawley rat at 5 mg/kg, po administered as single dose by LC-MS/MS analysis; format: ADME, organism-based; settings: in vivo
[14] = AUC (0 to infinity) in Sprague-Dawley rat at 5 mg/kg, po administered as single dose by LC-MS/MS analysis; format: ADME, organism-based; set-up: dose 5 mg/kg, route oral, time infinity; settings: Sprague-Dawley, in vivo
[15] = Stability in CD-1 mouse liver microsomes assessed as parent compound remaining at 10 uM measured after 60 mins in absence of NADPH-regenerating system by LC-MS/MS analysis; format: ADME, microsome; settings: read-out: Stability
[16] = Intrinsic clearance in CD-1 mouse liver microsomes at 10 uM preincubated for 5 mins followed by NADP addition by LC-MS/MS analysis; format: ADME, microsome; settings: read-out: CLH
[17] = Stability in CD-1 mouse liver microsomes assessed as parent compound remaining at 10 uM preincubated for 5 mins followed by NADP addition measured after 60 mins by LC-MS/MS analysis; format: ADME, microsome; settings: read-out: Stability
[18] = Half life in CD-1 mouse liver microsomes at 10 uM preincubated for 5 mins followed by NADP addition by LC-MS/MS analysis; format: ADME, microsome

Sequence of CDK1/Cyclin A (P06493 whole entry): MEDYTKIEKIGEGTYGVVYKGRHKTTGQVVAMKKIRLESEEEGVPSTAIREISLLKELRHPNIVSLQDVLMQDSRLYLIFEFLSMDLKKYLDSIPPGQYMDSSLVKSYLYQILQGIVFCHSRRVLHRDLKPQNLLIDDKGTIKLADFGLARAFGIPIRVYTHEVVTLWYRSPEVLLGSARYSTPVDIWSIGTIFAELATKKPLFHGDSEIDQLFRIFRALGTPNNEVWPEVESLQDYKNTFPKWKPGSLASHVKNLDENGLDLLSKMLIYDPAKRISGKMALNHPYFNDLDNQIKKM
Sequence of CDK1/Cyclin A (P20248 whole entry, further chain): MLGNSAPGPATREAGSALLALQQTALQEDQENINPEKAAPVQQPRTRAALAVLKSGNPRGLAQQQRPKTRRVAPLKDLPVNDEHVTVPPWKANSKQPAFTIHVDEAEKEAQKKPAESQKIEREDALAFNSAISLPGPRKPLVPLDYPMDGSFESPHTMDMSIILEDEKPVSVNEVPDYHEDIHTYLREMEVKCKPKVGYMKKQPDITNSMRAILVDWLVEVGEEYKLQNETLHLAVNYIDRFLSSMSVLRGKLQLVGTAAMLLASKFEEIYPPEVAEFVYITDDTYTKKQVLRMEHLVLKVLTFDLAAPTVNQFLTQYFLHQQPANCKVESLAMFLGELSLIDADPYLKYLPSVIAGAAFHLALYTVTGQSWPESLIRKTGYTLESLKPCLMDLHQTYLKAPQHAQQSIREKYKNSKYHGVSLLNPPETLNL
Sequence of CDK6/cyclin D3 (P30281 whole entry): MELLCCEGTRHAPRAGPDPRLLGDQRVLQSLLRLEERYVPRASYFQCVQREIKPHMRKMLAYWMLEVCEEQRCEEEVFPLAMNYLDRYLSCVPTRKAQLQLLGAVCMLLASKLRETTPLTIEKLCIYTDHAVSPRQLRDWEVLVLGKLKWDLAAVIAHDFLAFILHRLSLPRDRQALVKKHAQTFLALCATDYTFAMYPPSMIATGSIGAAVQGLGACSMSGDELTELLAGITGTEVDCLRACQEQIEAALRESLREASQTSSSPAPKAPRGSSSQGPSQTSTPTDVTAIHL
Sequence of CDK6/cyclin D3 (Q00534 whole entry): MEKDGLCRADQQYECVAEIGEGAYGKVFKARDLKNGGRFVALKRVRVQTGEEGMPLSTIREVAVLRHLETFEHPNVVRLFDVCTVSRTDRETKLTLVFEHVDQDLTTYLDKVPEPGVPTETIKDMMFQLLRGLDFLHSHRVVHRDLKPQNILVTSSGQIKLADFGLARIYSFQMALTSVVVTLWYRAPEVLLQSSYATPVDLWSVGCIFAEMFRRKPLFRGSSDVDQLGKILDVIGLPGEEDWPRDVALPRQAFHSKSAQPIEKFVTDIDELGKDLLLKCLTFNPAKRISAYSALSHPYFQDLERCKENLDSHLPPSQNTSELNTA
Sequence of Cyclin-dependent kinase 4/cyclin D1 (P11802 whole entry): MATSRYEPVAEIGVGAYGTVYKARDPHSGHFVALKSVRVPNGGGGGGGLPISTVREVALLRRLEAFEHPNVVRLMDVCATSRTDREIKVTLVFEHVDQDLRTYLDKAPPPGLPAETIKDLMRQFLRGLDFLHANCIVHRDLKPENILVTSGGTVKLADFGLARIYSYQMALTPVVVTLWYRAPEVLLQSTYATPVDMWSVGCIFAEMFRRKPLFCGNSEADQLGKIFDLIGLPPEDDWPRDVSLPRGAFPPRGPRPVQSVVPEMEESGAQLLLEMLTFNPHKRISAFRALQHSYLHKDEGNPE
Sequence of Cyclin-dependent kinase 4/cyclin D1 (P24385 whole entry, further chain): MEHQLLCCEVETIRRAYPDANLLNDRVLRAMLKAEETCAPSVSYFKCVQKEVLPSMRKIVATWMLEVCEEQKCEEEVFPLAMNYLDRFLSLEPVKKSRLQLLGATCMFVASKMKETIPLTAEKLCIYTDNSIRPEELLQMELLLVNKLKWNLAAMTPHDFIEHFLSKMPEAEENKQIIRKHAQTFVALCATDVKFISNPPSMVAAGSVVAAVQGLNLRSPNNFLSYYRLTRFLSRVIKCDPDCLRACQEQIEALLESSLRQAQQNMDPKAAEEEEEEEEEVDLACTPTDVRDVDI

Row | Ratio IC50 [1] | half-life [2] [h] | AUC(0-t) at 24 h [3] [ng·h/mL] | Vd [4] [L/kg] | clearance [5] [mL/min/kg] | IC50 [6] [nM] | Cmax [7] [ng/mL] | IC50 [8] [nM] | bioavailability [9] [%] | AUC(0-inf) [10] [ng·h/mL] | AUC(0-t) at 24 h [11] [ng·h/mL] | IC50 [12] [nM] | half-life [13] [h] | AUC(0-inf) [14] [ng·h/mL] | remaining at 1 h, 10 µM [15] [%] | microsomal CLint at 10 µM [16] [µL/min/mg] | remaining at 1 h, 10 µM [17] [%] | half-life at 10 µM [18] [h] | Structure (SMILES)
1 | 14 | 7 | 404 | 40.1 | 77.8 | 16 | 22.3 | 131 | 28 | 447 | 287 | 9 |  |  |  |  |  |  | CCC1(C)C(C)=Nc2c(F)cc(-c3nc(Nc4ccc(C5CCN(C)CC5)cn4)ncc3F)cc21 (stereo unspecified)
2 | 6 |  |  |  |  | 42 |  | 125 |  |  |  | 19 |  |  |  |  |  |  | CCN1CCC(c2ccc(Nc3ncc(F)c(-c4ccc5c(c4)C(C)(CC)C(C)=N5)n3)nc2)CC1 (stereo unspecified)
3 | 18 |  |  |  |  |  |  | 110 |  |  |  | 6 |  |  |  |  |  |  | CCC1(C)C(C)=Nc2c(F)cc(-c3nc(Nc4ccc(C5CCNCC5)cn4)ncc3F)cc21 (stereo unspecified)
4 | 352 |  |  |  |  |  |  |  |  |  |  | 0.5 |  |  |  |  |  |  | CC1=Nc2c(F)cc(-c3nc(Nc4ccc(C5CCN(CCO)CC5)cn4)ncc3F)cc2C12CCCC2
5 | 58 | 4.8 | 1140 | 11 | 28.3 | 4 | 80.3 |  | 34 | 1180 | 980 | 4 |  |  |  |  |  |  | CC1=Nc2ccc(-c3nc(Nc4ccc(N5CCNCC5)cn4)ncc3F)cc2C12CCCC2
6 | 106 |  |  |  |  | 78 |  | 1060 |  |  |  | 10 |  |  |  |  |  |  | CC1=Nc2c(F)cc(-c3nc(Nc4ccc(N5CCN(C(C)C)CC5)cn4)ncc3F)cc2C12CCCC2
7 | 16 | 3.8 | 761 | 8.5 | 42.3 |  | 37 |  | 21 | 796 | 386 |  | 5.1 | 420 |  |  |  |  | CC1=Nc2c(F)cc(-c3nc(Nc4ccc(N5CCN(C)CC5)cn4)ncc3F)cc2C12CCCC2
8 | 37 | 5.3 | 685 | 25.1 | 50.7 | 33 | 58.5 | 966 | 23 | 696 | 403 | 26 | 4.7 | 412 |  |  |  |  | CCN1CCN(Cc2ccc(Nc3ncc(F)c(-c4cc(F)c5c(c4)C(C)(CC)C(C)=N5)n3)nc2)CC1 (stereo unspecified)
9 |  | 7 | 2110 | 5.7 | 15 | 18 | 70.4 |  | 16 | 2230 | 842 | 16 | 9.8 | 1360 |  |  |  |  | CCN1CCN(c2ccc(Nc3ncc(F)c(-c4cc(F)c5c(c4)C4(CCCC4)C(C)=N5)n3)nc2)CC1
10 | 52 |  |  |  |  |  |  | 2220 |  |  |  |  |  |  |  |  |  |  | CC1=Nc2c(F)cc(-c3nc(Nc4ccc(N5CCNCC5)cn4)ncc3F)cc2C1(C)C
11 | 28 | 3 | 256 | 28.1 | 125 | 44 | 18 | 84 | 23 | 270 | 145 | 3 |  |  |  |  |  |  | CCC1(C)C(C)=Nc2c(F)cc(-c3nc(Nc4ccc(N5CCNCC5)cn4)ncc3F)cc21 (stereo unspecified)
12 | 18 |  |  |  |  | 16 |  | 216 |  |  |  | 12 |  |  |  |  |  |  | CCN1CCC(c2ccc(Nc3ncc(F)c(-c4cc(F)c5c(c4)C(C)(CC)C(C)=N5)n3)nc2)CC1 (stereo unspecified)
13 | 5 |  |  |  |  |  |  |  |  |  |  |  |  |  |  |  |  |  | CCN1CCC(c2ccc(Nc3ncc(F)c(-c4ccc5c(c4)C4(CCCC4)C(C)=N5)n3)nc2)CC1
14 | 11 | 1.4 | 204 | 17.9 | 167 | 10 |  | 96 |  | 213 |  |  |  |  |  |  |  |  | CCC1(CC)C(C)=Nc2c(F)cc(-c3nc(Nc4ccc(N5CCN(C)CC5)cn4)ncc3F)cc21
15 | 9 |  |  |  |  |  |  |  |  |  |  |  |  |  |  |  |  |  | CCN1CCN(Cc2ccc(Nc3ncc(F)c(-c4cc(F)c5c(c4)C(CC)(CC)C(C)=N5)n3)nc2)CC1
16 | 27 | 3 | 256 | 28.1 | 125 | 3 | 13.7 |  | 16 | 270 | 106 | 3 |  |  |  |  |  |  | CCC1(CC)C(C)=Nc2c(F)cc(-c3nc(Nc4ccc(N5CCNCC5)cn4)ncc3F)cc21

Row | Ratio IC50 [1] | half-life [2] [h] | AUC(0-t) at 24 h [3] [ng·h/mL] | Vd [4] [L/kg] | clearance [5] [mL/min/kg] | IC50 [6] [nM] | Cmax [7] [ng/mL] | IC50 [8] [nM] | bioavailability [9] [%] | AUC(0-inf) [10] [ng·h/mL] | AUC(0-t) at 24 h [11] [ng·h/mL] | IC50 [12] [nM] | half-life [13] [h] | AUC(0-inf) [14] [ng·h/mL] | remaining at 1 h, 10 µM [15] [%] | microsomal CLint at 10 µM [16] [µL/min/mg] | remaining at 1 h, 10 µM [17] [%] | half-life at 10 µM [18] [h] | Structure (SMILES)
17 | 14 |  |  |  |  | 28 |  | 142 |  |  |  |  |  |  |  |  |  |  | CCC1(C)C(C)=Nc2ccc(-c3nc(Nc4ccc(N5CCNCC5)cn4)ncc3F)cc21 (stereo unspecified)
18 | 10 |  |  |  |  |  |  | 166 |  |  |  | 16 |  |  |  |  |  |  | CCC1(C)C(C)=Nc2ccc(-c3nc(Nc4ccc(C5CCNCC5)cn4)ncc3F)cc21 (stereo unspecified)
19 | 268 | 13.2 | 2250 | 11.6 | 10.8 | 6 | 143 |  | 35 | 3190 | 1980 | 4 |  |  |  |  |  |  | CCN1CCC(c2ccc(Nc3ncc(F)c(-c4cc(F)c5c(c4)C4(CCCC4)C(C)=N5)n3)nc2)CC1
20 | 1 |  |  |  |  |  |  | 65 |  |  |  |  |  |  |  |  |  |  | CCN1CCN(c2ccc(Nc3ncc(F)c(-c4cc(F)c5c(c4)C(C)(CC)C(C)=N5)n3)nc2)CC1 (stereo unspecified)
21 | 22 |  |  |  |  | 35 |  | 112 |  |  |  | 5 |  |  |  |  |  |  | CCC1(C)C(C)=Nc2ccc(-c3nc(Nc4ccc(N5CCN(C)CC5)cn4)ncc3F)cc21 (stereo unspecified)
22 | 818 | 8.6 | 1200 | 15.6 | 24.6 | 8 | 62.1 |  | 29 | 1370 | 867 | 0.4 |  |  |  |  |  |  | CC1=Nc2c(F)cc(-c3nc(Nc4ccc(C5CCNCC5)cn4)ncc3F)cc2C12CCCC2
23 | 25 | 5.8 | 949 | 17.2 | 34.7 | 8 | 56.6 |  | 28 | 1000 | 671 | 6 |  |  | 94.4 | 49.2 | 24 | 0.47 | CC1=Nc2c(F)cc(-c3nc(Nc4ccc(N5CCNCC5)cn4)ncc3F)cc2C12CCCC2
24 | 38 |  |  |  |  | 13 |  |  |  |  |  | 7 |  |  |  |  |  |  | CCN1CCN(Cc2ccc(Nc3ncc(F)c(-c4ccc5c(c4)C4(CCCC4)C(C)=N5)n3)nc2)CC1
25 | 46 | 4.8 | 442 | 15.7 | 72.9 | 15 | 28.9 |  | 24 | 458 | 269 | 9 |  | 382 |  |  |  |  | CC1=Nc2ccc(-c3nc(Nc4ccc(N5CCN(C)CC5)cn4)ncc3F)cc2C12CCCC2
26 | 6 |  |  |  |  | 18 |  | 54 |  |  |  | 9 |  |  |  |  |  |  | CCC1(C)C(C)=Nc2ccc(-c3nc(Nc4ccc(C5CCN(C)CC5)cn4)ncc3F)cc21 (stereo unspecified)
27 | 12 |  |  |  |  | 8 |  |  |  |  |  | 4 |  |  |  |  |  |  | CC1=Nc2ccc(-c3nc(Nc4ccc(C5CCN(C)CC5)cn4)ncc3F)cc2C12CCCC2
28 | 7 |  |  |  |  | 4 |  |  |  |  |  | 4 |  |  |  |  |  |  | CC1=Nc2ccc(-c3nc(Nc4ccc(C5CCNCC5)cn4)ncc3F)cc2C12CCCC2
29 | 55 |  |  |  |  | 17 |  |  |  |  |  | 6 |  |  |  |  |  |  | CC1=Nc2c(F)cc(-c3nc(Nc4ccc(N5CCN(CCO)CC5)cn4)ncc3F)cc2C12CCCC2
30 | 25 |  |  |  |  |  |  | 101 |  |  |  | 4 |  |  |  |  |  |  | CCN1CCN(c2ccc(Nc3ncc(F)c(-c4ccc5c(c4)C(C)(CC)C(C)=N5)n3)nc2)CC1 (stereo unspecified)
31 | 153 | 2.1 | 496 | 6.4 | 69.2 | 6 |  | 153 |  | 504 |  | 1 |  |  |  |  |  |  | CCC1(C)C(C)=Nc2c(F)cc(-c3nc(Nc4ccc(N5CCN(C)CC5)cn4)ncc3F)cc21 (stereo unspecified)

Source: ChEMBL document CHEMBL4251601 (Eur J Med Chem, 2018)
